From patent US8592403B2, “Diazepine and diazocane compounds as MC4 agonists” (Pfizer Limited, priority 2008, dated 2013)

How the values were obtained:
[1] = target: MC4 receptor (Homo sapiens, UniProt P32245); assay: MC4 EC50 functional potency (protocol E of US2005/0176772 / WO 2005/077935); type: cell-based
Method: The compounds of formula (I) of the present invention have utility as MCR4 agonists in the treatment of various disease states.
MC5 and MC4 EC50 activity was determined as described by assay protocols D and E, respectively, in US2005/0176772 (pages 28-30).

[2] = target: T1, MC3 receptor (MC3R) (Homo sapiens, UniProt P41968); assay: Nle4, D-Phe7-α-MSH inhibition at the MC3 receptor (competition binding, SPA, CHO-CRE MC3R membranes)
T1 construct: expressed in transfected cells; host or cells: CHO-CRE MC3R cells (membranes)
T1 sequence (P41968 whole entry): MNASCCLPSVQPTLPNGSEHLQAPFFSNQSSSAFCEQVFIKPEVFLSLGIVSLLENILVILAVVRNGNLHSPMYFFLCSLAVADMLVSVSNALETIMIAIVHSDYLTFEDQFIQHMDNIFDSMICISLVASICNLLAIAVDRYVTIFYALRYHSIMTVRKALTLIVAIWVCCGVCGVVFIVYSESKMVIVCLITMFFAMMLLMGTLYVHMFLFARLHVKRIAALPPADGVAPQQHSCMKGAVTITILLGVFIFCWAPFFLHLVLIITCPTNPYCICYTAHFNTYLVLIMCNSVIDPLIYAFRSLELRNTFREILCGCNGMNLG
From the text: Nle4, D-Phe7-α-MSH Inhibition at the MC3 Receptor
Nle4, D-Phe7-α-MSH is a stable analogue of melanocyte-stimulating hormone (MSH), which is an agonist at the MC3 receptor (MC3R). Compounds can be evaluated for their ability to inhibit Nle4, D-Phe7-α-MSH binding to membranes from cells expressing the MC3R using a competition binding assay versus [^125I] Nle4, D-Phe7-α-MSH.
Cells expressing the MC3R were subject to homogenisation and the membrane fragment isolated by differential centrifugation. CHO-CRE MC3R cell membranes were coupled to PVT-PEI-WGA SPA Beads type A for 2 hours, spun at 1000 RPM for 5 mins and suspended to a final assay concentration of 800 ug bead/ml (1.2 ug membrane, 40 ug bead per well). Bead/membrane mix was incubated with 0.06 nM [^125I] Nle4, D-Phe7-α-MSH and 11 half-log concentrations of competitor ligand, in duplicate, in a total volume of 50 μl buffer per well (25 mM HEPES, 1 mM MgCl2, 2.5 mM CaCl2, 1% Pluronic F68, 1 complete EDTA protease inhibitor tablet/50 ml pH7). Non-specific binding was determined by the inclusion of 100 nM SHU9119. The reaction was initiated by the addition of bead/membranes and plates were incubated at room temperature for 12 hours (the first hour on a plate shaker), after which the amount of radioactivity present was determined using a Wallac plate counter. Ki values were determined by data analysis using appropriate software.

[3] = target: T2, CYP3A4 (Homo sapiens, UniProt P08684); assay: High density DDI 3 μM cocktail screen in human liver microsomes, midazolam probe; type: in vitro ADME; conditions: human, liver microsomes, probe midazolam, read-out: % inhibition 3A4 @ 3 μM
T2 construct: utilizes human liver microsomes together with isoform-specific clinical drug probes; from tissue; host or cells: human liver microsomes
T2 sequence (P08684 whole entry, canonical isoform): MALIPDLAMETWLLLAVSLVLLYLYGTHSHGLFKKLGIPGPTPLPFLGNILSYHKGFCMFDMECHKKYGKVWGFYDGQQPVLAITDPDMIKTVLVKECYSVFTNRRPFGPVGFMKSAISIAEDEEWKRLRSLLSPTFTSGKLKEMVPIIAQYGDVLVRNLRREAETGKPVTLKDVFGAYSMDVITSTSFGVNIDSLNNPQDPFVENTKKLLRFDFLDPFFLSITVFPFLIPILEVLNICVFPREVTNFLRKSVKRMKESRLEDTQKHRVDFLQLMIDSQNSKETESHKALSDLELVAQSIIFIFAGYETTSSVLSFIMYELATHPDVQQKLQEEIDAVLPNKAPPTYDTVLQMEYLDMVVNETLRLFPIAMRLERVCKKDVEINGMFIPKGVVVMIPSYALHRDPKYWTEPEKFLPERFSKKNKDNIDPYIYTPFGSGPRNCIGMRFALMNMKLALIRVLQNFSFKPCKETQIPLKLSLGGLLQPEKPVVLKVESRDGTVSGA
Method: High Density Drug-Drug Interactions (DDI) 3 μM Cocktail Screen
A drug interaction is a situation in which a substance affects the activity of another drug, i.e. the effects are increased or decreased, or together they produce a new effect that neither produces on its own. Drug interactions may be the result of various processes but a relatively common one is where one drug affects the pharmacokinetics of another by inhibiting the cytochrome P450 that metabolises it. Because of the importance of these phenomena, assessment of the DDI potential for new chemical entities (NCEs) is considered important early on in the drug discovery process.
The DDI cocktail screen in human liver microsomes (HLM) is run in a fully automated fashion and the aim of the screen is to provide a single-point assessment of the DDI potential of new chemical entity (NCE; tested at […]) against the 4 primary cytochrome P450 enzymes, 1A2, 2D6, 2C9 and 3A4.
The substrate cocktail approach for P450 DDI utilizes human liver microsomes together with isoform-specific clinical drug probes and permits the simultaneous measurement of the inhibition of P450 1A2, 2C9, 2D6 & 3A4 activities in a single incubation. This is run in high throughput with simultaneous detection of metabolites by LC-MS/MS. This method has been thoroughly tested and evaluated using standard compounds.
Appearance of the metabolite of each substrate is measured over time in the presence and absence of the NCE (test compound/inhibitor) at a concentration of 3 μM. The compounds are assessed for their inhibitory potential as a percentage value and interpreted using the following scheme.

[4] = In vitro metabolism rate determination, human liver microsome (HLM) assay; type: in vitro ADME; conditions: human, liver microsomes, read-out: HLM: Clint, app
From the text: In Vitro Metabolism Rate Determination (Human Liver Microsome (HLM); Rat Liver Microsome (RLM) Assay)
Many drugs are metabolised by the cytochrome P450 mono-oxygenase system. This enzyme is found in high concentrations in the liver and is bound to the endoplasmic reticulum of the hepatocyte. The enzyme system can be obtained in semi-purified state by the preparation of the hepatic microsomal fractions. Determining a compound's in vitro half-life in such a system provides a useful indicator of metabolic stability.
Methodology for In Vitro Rate Determination Using Hepatic & Supermix Microsomes
The method outlined below is for a total incubation volume of 1.5 ml.
1. The following mixture is prepared in a test tube:
2. Defrost microsomes at room temperature and add sufficient microsomes to give a final concentration of 0.5 nmol cytochrome P450/ml of incubation e.g. for a 1.5 ml incubation, the volume of microsomes to be added is:
3. Add sufficient MilliQ water to give a total incubation volume of 1.425 ml.
6. Add substrate to the incubation. The substrate should be at an initial concentration of 1 μM. The volume of substrate required in the remaining 1.162.5 ml incubation is calculated as follows: […]
8. Pre-incubate the tube containing the incubation mix, also positive control and no cofactor tubes in the thermostatically controlled shaking water bath set at 37° C. for approx 5 min.
9. Add NADP to initiate reaction (75 μl to each 1.162.5 ml incubation mix, 12.5 μl to positive control tube and 5 μl to no substrate tube) and take first time point immediately. The PNA positive control, no cofactor control and no substrate tubes are incubated for the total incubation time.
10. Remove 100 μl aliquots up to 9 different sampling points from 0 to 60 min (usually 0, 3, 5, 10, 15, 20, 30, 45 & 60 min) and terminate reaction. Longer incubation times can be used, but, after 120 min the microsomes deteriorate. The reaction may be terminated by addition of organic solvent, acid or base. At the end of the incubation process the no cofactor and no substrate controls in a similar manner i.e. terminate with the same reagent.
11. Analyse samples (including no cofactor and no substrate control) by a specific assay for the substrate to determine the disappearance kinetics.
Data obtained using the procedure described above can be quantified in terms of the substrates in vitro intrinsic clearance (Clint). Providing that the substrate concentration is below Km, the metabolism should be 1st order giving a log-linear plot of substrate disappearance with time.
The gradient of this line is the first order rate constant (k) for the substrate disappearance and is determined by regression analysis. This rate constant can be converted to the half-life according to the following equation.
Alternatively the rate constant can be converted to an intrinsic clearance (Clint) according to the following equation:— Clint(μl/min/mg)=(k/protein concentration in incubation (mg/ml))*1000

Sequence of MC4 receptor (P32245 whole entry): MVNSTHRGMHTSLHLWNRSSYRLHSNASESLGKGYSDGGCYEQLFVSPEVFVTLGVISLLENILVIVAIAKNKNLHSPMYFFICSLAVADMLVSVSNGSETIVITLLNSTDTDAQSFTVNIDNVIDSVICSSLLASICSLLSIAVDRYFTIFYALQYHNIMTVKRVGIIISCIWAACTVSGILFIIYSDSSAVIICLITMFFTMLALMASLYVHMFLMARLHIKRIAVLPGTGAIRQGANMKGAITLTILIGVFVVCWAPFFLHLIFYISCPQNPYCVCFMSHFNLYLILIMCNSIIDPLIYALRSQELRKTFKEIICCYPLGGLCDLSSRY

Row | Compound | EC50 [1] | Ki [2] | inhibition at 3 µM [3] | microsomal CLint at 1 μM [4]
1 | COc1ccc([C@@H]2CN(c3cccnn3)C[C@H]2C(=O)N2CCC(c3ccc(Cl)cc3)N(C(C)=O)CC2)c(F)c1 (mixture of isomers) [Example 93] | 14.5 nM | 4900 nM | 18.9% | 29.3 µL/min/mg
2 | COc1ccc([C@@H]2CN(c3cccnn3)C[C@H]2C(=O)N2CCC(c3ccc(Cl)cc3)N(S(C)(=O)=O)CC2)c(F)c1 (mixture of isomers) [Example 94] | 25.6 nM | 6690 nM | 46.6% | 78.1 µL/min/mg
3 | CC(C)(C)N1C[C@@H](C(=O)N2CCC[C@@H](c3ccc(Cl)cc3)N(C(=O)C3CC3)CC2)[C@H](c2ccc(F)cc2F)C1 [Example 7] | 11.9 nM | 10100 nM | – | 26.2 µL/min/mg
4 | CC(C)C(=O)N1CCN(C(=O)[C@@H]2CN(c3ccc(=O)n(C)n3)C[C@H]2c2ccc(F)cc2F)CCC[C@H]1c1ccc(Cl)cc1 [Example 33, 6-[(3S,4R)-3-{[5S-(4-chlorophenyl)-4-isobutyryl-1,4-diazocan-1-yl]carbonyl}-4-(2,4-difluorophenyl)pyrrolidin-1-yl]-2-methylpyridazin-3(2H)-one] | 3.5 nM | – | 45.2% | 17 µL/min/mg
5 | Cn1nc(N2C[C@@H](C(=O)N3CCC[C@@H](c4ccc(Cl)cc4)N(C(=O)C4CC4)CC3)[C@H](c3ccc(F)cc3F)C2)ccc1=O [Example 34] | 3.9 nM | – | 69.2% | 30.9 µL/min/mg
6 | CC(C)C(=O)N1CCN(C(=O)[C@@H]2CN(c3ccc(=O)n(C)n3)C[C@H]2c2ccc(Cl)cn2)CCC[C@H]1c1ccc(Cl)cc1 [Example 37, 6-[(3S,4S)-3-{[5S-(4-chlorophenyl)-4-isobutyryl-1,4-diazocan-1-yl]carbonyl}-4-(5-chloropyridin-2-yl)pyrrolidin-1-yl]-2-methylpyridazin-3(2H)-one] | 2.11 nM | – | 42.3% | 13.9 µL/min/mg
7 | CCN(CC)C(=O)N1CCN(C(=O)[C@@H]2CN(C(C)(C)C)C[C@H]2c2ccc(F)cc2F)CCC[C@H]1c1ccc(Cl)cc1 [Example 44, 4-{[(3S,4R)-1-tert-butyl-4-(2,4-difluorophenyl)pyrrolidin-3-yl]carbonyl}-8S-(4-chlorophenyl)-N,N-diethyl-1,4-diazocane-1-carboxamide] | 5.58 nM | – | 54.5% | 173 µL/min/mg
8 | CC(C)(C)N1C[C@@H](C(=O)N2CCC[C@@H](c3ccc(Cl)cc3)N(C(=O)N3CCOCC3)CC2)[C@H](c2ccc(F)cc2F)C1 [Example 46] | 19.7 nM | – | 27.3% | 71.1 µL/min/mg
9 | COC(=O)N1CCN(C(=O)[C@@H]2CN(c3ccc(=O)n(C)n3)C[C@H]2c2ccc(Cl)cn2)CCC[C@H]1c1ccc(Cl)cc1 [Example 47, methyl 8S-(4-chlorophenyl)-4-{[(3S,4S)-4-(5-chloropyridin-2-yl)-1-(1-methyl-6-oxo-1,6-dihydropyridazin-3-yl)pyrrolidin-3-yl]carbonyl}-1,4-diazocane-1-carboxylate] | 5.11 nM | – | 54.2% | 20.6 µL/min/mg
10 | COC(=O)N1CCN(C(=O)[C@@H]2CN(c3ccc4nncn4n3)C[C@H]2c2ccc(Cl)cn2)CCC[C@@H]1c1ccc(Cl)cc1 [Example 51] | 3.29 nM | 212 nM | 75.2% | –
11 | CC(C)OC(=O)N1CCN(C(=O)[C@@H]2CN(C(C)(C)C)C[C@H]2c2ccc(F)cc2F)CCC[C@H]1c1ccc(Cl)cc1 [Example 53] | 14.7 nM | – | 58.5% | 27.7 µL/min/mg
12 | CC(C)(C)N1C[C@@H](C(=O)N2CCC[C@@H](c3ccc(Cl)cc3)N(C(=O)C3CCOCC3)CC2)[C@H](c2ccc(F)cc2F)C1 [Example 59, 1-{[(3S,4R)-1-tert-butyl-4-(2,4-difluorophenyl)pyrrolidin-3-yl]carbonyl}-5S-(4-chlorophenyl)-4-(tetrahydro-2H-pyran-4-ylcarbonyl)-1,4-diazocane] | 25.2 nM | – | 38.4% | 55.4 µL/min/mg
13 | CC(C)(C)N1C[C@@H](C(=O)N2CCC[C@@H](c3ccc(Cl)cc3)N(C(=O)C3CC(F)(F)C3)CC2)[C@H](c2ccc(F)cc2F)C1 [Example 61] | 25.3 nM | – | 40% | 13.9 µL/min/mg
14 | CC(C)(C)N1C[C@@H](C(=O)N2CCC[C@@H](c3ccc(Cl)cc3)N(C(=O)C3CC(F)(F)C3)CC2)[C@H](c2ccc(Cl)cn2)C1 [Example 63] | 85.3 nM | – | 55.6% | 9.43 µL/min/mg
15 | CC(C)(C)N1C[C@@H](C(=O)N2CCC[C@@H](c3ccc(Cl)cc3)N(C(=O)CC3CC3)CC2)[C@H](c2ccc(F)cc2F)C1 [Example 65] | 16.6 nM | 6860 nM | – | 23.1 µL/min/mg
16 | COC(=O)N1CCN(C(=O)[C@@H]2CN(c3ccc4nncn4n3)C[C@H]2c2ccc(F)cc2F)CCC[C@H]1c1ccc(Cl)cc1 [Example 96] | 0.852 nM | – | 76.9% | 31.3 µL/min/mg
